{
  "source": "the supplement of paper PMC10307832",
  "assay_in_all_cases": "relative viability (nuclei count vs DMSO), 5 days (fraction); higher = more cells survive",
  "key": {"RERF-LC-KJ": {"system": "RERF-LC-KJ", "how_it_was_run": "(§1)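 The day after seeding in 1536-well plates, lung cancer cell lines were treated by pin tool with a single drug, or with a fixed anchor-drug dose together with five library-drug doses (not always all listed) in √10 steps. After 5 days, a combined fix-and-stain solution (final 0.05% Triton X-100, 1% formaldehyde, 1 ug/ml Hoechst) was added. Nuclei counted on 4× images gave relative viability as treated counts over vehicle counts, reported as the median of duplicate plates.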"}, "LOU-NH91": {"system": "LOU-NH91", "how_it_was_run": "as §1"}, "NCI-H1792": {"system": "NCI-H1792", "how_it_was_run": "as §1"}, "NCI-H358": {"system": "NCI-H358", "how_it_was_run": "as §1"}, "HCC-78": {"system": "HCC-78", "how_it_was_run": "as §1"}, "LCLC-97TM1": {"system": "LCLC-97TM1", "how_it_was_run": "as §1"}, "LU99A": {"system": "LU99A", "how_it_was_run": "as §1"}, "NCI-H727": {"system": "NCI-H727", "how_it_was_run": "as §1"}, "EKVX": {"system": "EKVX", "how_it_was_run": "as §1"}, "BEN": {"system": "BEN", "how_it_was_run": "as §1"}, "EMC-BAC-2": {"system": "EMC-BAC-2", "how_it_was_run": "as §1"}, "NCI-H1944": {"system": "NCI-H1944", "how_it_was_run": "as §1"}, "LK-2": {"system": "LK-2", "how_it_was_run": "as §1"}, "HCC-827": {"system": "HCC-827", "how_it_was_run": "as §1"}, "NCI-H1734": {"system": "NCI-H1734", "how_it_was_run": "as §1"}, "ChaGo-K-1": {"system": "ChaGo-K-1", "how_it_was_run": "as §1"}, "NCI-H2126": {"system": "NCI-H2126", "how_it_was_run": "as §1"}, "EPLC-272H": {"system": "EPLC-272H", "how_it_was_run": "as §1"}, "NCI-H2087": {"system": "NCI-H2087", "how_it_was_run": "as §1"}},
  "data": [
    {"smiles": "O=C(O)CCCCC(CCSCc1ccccc1)SCc1ccccc1", "note": "(stereo not drawn) [CPI-613] + NC(=O)Nc1cc(-c2cccc(F)c2)sc1C(=O)N[C@H]1CCCNC1 [AZD7762] (partner 0.2 µM)", "values": [
      {"measurement": "relative viability", "setting": "RERF-LC-KJ; first compound 5 µM", "result": 0.98},
      {"measurement": "relative viability", "setting": "RERF-LC-KJ; first compound 15.81 µM", "result": 0.917},
      {"measurement": "relative viability", "setting": "RERF-LC-KJ; first compound 50 µM", "result": 1},
      {"measurement": "relative viability", "setting": "RERF-LC-KJ; first compound 158.11 µM", "result": 0.94},
      {"measurement": "relative viability", "setting": "RERF-LC-KJ; first compound 500 µM", "result": 0.921},
      {"measurement": "relative viability", "setting": "LOU-NH91; first compound 5 µM", "result": 0.74},
      {"measurement": "relative viability", "setting": "LOU-NH91; first compound 15.81 µM", "result": 0.7},
      {"measurement": "relative viability", "setting": "LOU-NH91; first compound 50 µM", "result": 0.753},
      {"measurement": "relative viability", "setting": "LOU-NH91; first compound 158.11 µM", "result": 0.633},
      {"measurement": "relative viability", "setting": "LOU-NH91; first compound 500 µM", "result": 0.241},
      {"measurement": "relative viability", "setting": "NCI-H1792; first compound 5 µM", "result": 0.691},
      {"measurement": "relative viability", "setting": "NCI-H1792; first compound 15.81 µM", "result": 0.616},
      {"measurement": "relative viability", "setting": "NCI-H1792; first compound 50 µM", "result": 0.57},
      {"measurement": "relative viability", "setting": "NCI-H1792; first compound 158.11 µM", "result": 0.135},
      {"measurement": "relative viability", "setting": "NCI-H1792; first compound 500 µM", "result": 0.047},
      {"measurement": "relative viability", "setting": "NCI-H358; first compound 5 µM", "result": 0.569},
      {"measurement": "relative viability", "setting": "NCI-H358; first compound 15.81 µM", "result": 0.451},
      {"measurement": "relative viability", "setting": "NCI-H358; first compound 50 µM", "result": 0.474},
      {"measurement": "relative viability", "setting": "NCI-H358; first compound 158.11 µM", "result": 0.438},
      {"measurement": "relative viability", "setting": "NCI-H358; first compound 500 µM", "result": 0.56},
      {"measurement": "relative viability", "setting": "HCC-78; first compound 15.81 µM", "result": 0.606},
      {"measurement": "relative viability", "setting": "HCC-78; first compound 50 µM", "result": 0.674},
      {"measurement": "relative viability", "setting": "HCC-78; first compound 158.11 µM", "result": 0.543},
      {"measurement": "relative viability", "setting": "HCC-78; first compound 500 µM", "result": 0.738},
      {"measurement": "relative viability", "setting": "LCLC-97TM1; first compound 5 µM", "result": 0.293},
      {"measurement": "relative viability", "setting": "LCLC-97TM1; first compound 15.81 µM", "result": 0.225},
      {"measurement": "relative viability", "setting": "LCLC-97TM1; first compound 50 µM", "result": 0.229},
      {"measurement": "relative viability", "setting": "LCLC-97TM1; first compound 158.11 µM", "result": 0.125},
      {"measurement": "relative viability", "setting": "LCLC-97TM1; first compound 500 µM", "result": 0.0538},
      {"measurement": "relative viability", "setting": "LU99A; first compound 5 µM", "result": 0.338},
      {"measurement": "relative viability", "setting": "LU99A; first compound 15.81 µM", "result": 0.326},
      {"measurement": "relative viability", "setting": "LU99A; first compound 50 µM", "result": 0.322},
      {"measurement": "relative viability", "setting": "LU99A; first compound 158.11 µM", "result": 0.335},
      {"measurement": "relative viability", "setting": "LU99A; first compound 500 µM", "result": 0.0775},
      {"measurement": "relative viability", "setting": "NCI-H727; first compound 5 µM", "result": 0.617},
      {"measurement": "relative viability", "setting": "NCI-H727; first compound 15.81 µM", "result": 0.547},
      {"measurement": "relative viability", "setting": "NCI-H727; first compound 50 µM", "result": 0.669},
      {"measurement": "relative viability", "setting": "NCI-H727; first compound 158.11 µM", "result": 0.555},
      {"measurement": "relative viability", "setting": "NCI-H727; first compound 500 µM", "result": 0.561},
      {"measurement": "relative viability", "setting": "EKVX; first compound 5 µM", "result": 0.731},
      {"measurement": "relative viability", "setting": "EKVX; first compound 15.81 µM", "result": 0.646},
      {"measurement": "relative viability", "setting": "EKVX; first compound 50 µM", "result": 0.505},
      {"measurement": "relative viability", "setting": "EKVX; first compound 500 µM", "result": 0.62},
      {"measurement": "relative viability", "setting": "BEN; first compound 5 µM", "result": 0.653},
      {"measurement": "relative viability", "setting": "BEN; first compound 15.81 µM", "result": 0.485},
      {"measurement": "relative viability", "setting": "BEN; first compound 50 µM", "result": 0.697},
      {"measurement": "relative viability", "setting": "BEN; first compound 158.11 µM", "result": 0.672},
      {"measurement": "relative viability", "setting": "BEN; first compound 500 µM", "result": 0.526},
      {"measurement": "relative viability", "setting": "EMC-BAC-2; first compound 5 µM", "result": 1.1},
      {"measurement": "relative viability", "setting": "EMC-BAC-2; first compound 15.81 µM", "result": 1.05},
      {"measurement": "relative viability", "setting": "EMC-BAC-2; first compound 50 µM", "result": 1.14},
      {"measurement": "relative viability", "setting": "EMC-BAC-2; first compound 158.11 µM", "result": 0.902},
      {"measurement": "relative viability", "setting": "EMC-BAC-2; first compound 500 µM", "result": 0.529},
      {"measurement": "relative viability", "setting": "NCI-H1944; first compound 5 µM", "result": 0.511},
      {"measurement": "relative viability", "setting": "NCI-H1944; first compound 15.81 µM", "result": 0.487},
      {"measurement": "relative viability", "setting": "NCI-H1944; first compound 50 µM", "result": 0.473},
      {"measurement": "relative viability", "setting": "NCI-H1944; first compound 158.11 µM", "result": 0.307},
      {"measurement": "relative viability", "setting": "NCI-H1944; first compound 500 µM", "result": 0.345},
      {"measurement": "relative viability", "setting": "LK-2; first compound 5 µM", "result": 0.408},
      {"measurement": "relative viability", "setting": "LK-2; first compound 15.81 µM", "result": 0.359},
      {"measurement": "relative viability", "setting": "LK-2; first compound 50 µM", "result": 0.343},
      {"measurement": "relative viability", "setting": "LK-2; first compound 158.11 µM", "result": 0.355},
      {"measurement": "relative viability", "setting": "LK-2; first compound 500 µM", "result": 0.289},
      {"measurement": "relative viability", "setting": "HCC-827; first compound 5 µM", "result": 0.217},
      {"measurement": "relative viability", "setting": "HCC-827; first compound 15.81 µM", "result": 0.181},
      {"measurement": "relative viability", "setting": "HCC-827; first compound 50 µM", "result": 0.201},
      {"measurement": "relative viability", "setting": "HCC-827; first compound 158.11 µM", "result": 0.179},
      {"measurement": "relative viability", "setting": "HCC-827; first compound 500 µM", "result": 0.127},
      {"measurement": "relative viability", "setting": "NCI-H1734; first compound 5 µM", "result": 0.505},
      {"measurement": "relative viability", "setting": "NCI-H1734; first compound 15.81 µM", "result": 0.482},
      {"measurement": "relative viability", "setting": "NCI-H1734; first compound 50 µM", "result": 0.413},
      {"measurement": "relative viability", "setting": "NCI-H1734; first compound 158.11 µM", "result": 0.272},
      {"measurement": "relative viability", "setting": "NCI-H1734; first compound 500 µM", "result": 0.0982},
      {"measurement": "relative viability", "setting": "ChaGo-K-1; first compound 5 µM", "result": 0.827},
      {"measurement": "relative viability", "setting": "ChaGo-K-1; first compound 15.81 µM", "result": 0.778},
      {"measurement": "relative viability", "setting": "ChaGo-K-1; first compound 50 µM", "result": 0.85},
      {"measurement": "relative viability", "setting": "ChaGo-K-1; first compound 158.11 µM", "result": 0.536},
      {"measurement": "relative viability", "setting": "ChaGo-K-1; first compound 500 µM", "result": 0.436},
      {"measurement": "relative viability", "setting": "NCI-H2126; first compound 5 µM", "result": 0.935},
      {"measurement": "relative viability", "setting": "NCI-H2126; first compound 15.81 µM", "result": 0.966},
      {"measurement": "relative viability", "setting": "NCI-H2126; first compound 50 µM", "result": 0.991},
      {"measurement": "relative viability", "setting": "NCI-H2126; first compound 158.11 µM", "result": 0.348},
      {"measurement": "relative viability", "setting": "NCI-H2126; first compound 500 µM", "result": 0.788},
      {"measurement": "relative viability", "setting": "EPLC-272H; first compound 5 µM", "result": 0.209},
      {"measurement": "relative viability", "setting": "EPLC-272H; first compound 15.81 µM", "result": 0.302},
      {"measurement": "relative viability", "setting": "EPLC-272H; first compound 50 µM", "result": 0.189},
      {"measurement": "relative viability", "setting": "EPLC-272H; first compound 158.11 µM", "result": 0.143},
      {"measurement": "relative viability", "setting": "EPLC-272H; first compound 500 µM", "result": 0.3},
      {"measurement": "relative viability", "setting": "NCI-H2087; first compound 5 µM", "result": 1.4},
      {"measurement": "relative viability", "setting": "NCI-H2087; first compound 15.81 µM", "result": 0.87},
      {"measurement": "relative viability", "setting": "NCI-H2087; first compound 50 µM", "result": 1.16},
      {"measurement": "relative viability", "setting": "NCI-H2087; first compound 158.11 µM", "result": 0.446},
      {"measurement": "relative viability", "setting": "NCI-H2087; first compound 500 µM", "result": 0.01}
    ]}
  ]
}
